Results published in patent publication US10675239B2, “Vegetable extract to prevent and treat hair loss” (GIULIANI S.P.A., priority 2017, dated 2020).

Assays:
Format in all cases: cell-based, mouse
[1] = system: 5 alpha-reductase isoform 2 (SRD5A2); assay: Gene expression of isoform 2 of 5 alpha-reductase (SRD5A2) in BALB3T3 cells by qRT-PCR; conditions: 0.05 mg/mL, 24 h, relative expression 2^-ΔΔCt vs β-actin, Ctr = 1
Experimental: Effects of Galeopsis segetum and Galeopsis tetrahit Study on the Activity of 5 Alpha-Reductase (Isoform 2)-BALB3T3
The gene expression of the isoform 2 of 5 alpha-reductase (SRD5A2) in BALB3T3 cells was evaluated by relative quantitative RT-PCR (quantitative reverse transcription polymerase chain reaction-qRT-PCR).
This analysis has foreseen 3 sequential phases: • Total RNA extraction; • Reverse transcription in cDNA; • qRT-PCR.
BALB3T3 murine fibroblasts were seeded in 12-well plates at a density of 0.5*10^6 cells/well and incubated until about 80% confluence was achieved.
Subsequently, the cells were incubated for 24 hours with Galeopsis segetum and Galeopsis tetrahit (vegetable biomass and dry hydro-alcoholic sample) at the following concentrations: 20-50 and 100 μg/ml. […]
At the end of the incubation with the active compounds of interest, cells were washed with PBS (1×) and finally subjected to the RNA extraction procedure. At the end of the extraction, using a spectrophotometer (Jenway UV/VIS MOD: 6715, BS-6715B0), the concentrations in μg/ml of total RNA extracted at the wavelength of 260 nm were calculated. Finally, the integrity of RNA (2 μg/ml) by electrophoretic run on 1% agarose gel was evaluated. […]
The extracted and quantified RNA was diluted to a concentration of 2 μg/ml and retro-transcripted in cDNA. […]
Assuming a 100% amplification efficiency, the 2^−ΔΔCt was calculated.

[2] = system: BALB3T3 murine fibroblasts stressed with H2O2; assay: MTT with induced oxidative stress-BALB3T3; conditions: 50 μM, pretreatment, then 1 mM H2O2 90 min; non-stressed ctr = 100, Ctr + H2O2 = 58.43
Description: MTT with Induced Oxidative Stress-BALB3T3
BALB3T3 mouse fibroblasts are one of the validated models for studies of oxidative stress in vitro (Subirade et al., 1995; Kutuk et al., 2004).
Studies conducted in 2005 by Rajapakse and coworkers (2005) highlighted the possibility of exploiting a highly used and versatile method such as that of the MTT assay for the in vitro study antioxidant activity of active compounds. Specifically, through this method it is possible to study the protective effects of these compounds on cells subsequently subjected to oxidative stress. The induction of oxidative stress is carried out by incubation with hydrogen peroxide, an agent that induces the production of oxidative damage in the cells through ROS formation. The possible protective effects can be determined through the assessment of cell viability after oxidative stress of the pre-treated/pre-exposed cells to the active compounds to be tested, in comparison with cells subjected to the same oxidative stress. […]
Once the oxidation stress induction phase was completed, the cell viability of the various samples was evaluated, according to the method described in point 4.1.2 (assay with MTT).
The data were expressed as a percentage of cell viability compared to non-stressed control cells (ctr), according to the following formula: % cell viability/ctr=(Sample Abs/ctr Abs)*100 […]

[3] = system: ROS production in the BALB3T3 murine fibroblast cell line; assay: ROS intracellular production (DCFH-DA assay)-BALB3T3; conditions: 25 μM, 16 h pretreatment, then 1 mM H2O2 90 min; ctr + H2O2 = 100
Experimental: Study of the Effects of Galeopsis segetum and Galeopsis tetrahit and on ROS Production Using a DCFH-DA-BALB3T3 Assay
The ROS production in the BALB3T3 murine fibroblast cell line was determined by spectrophotometer using the 2,7-dichlorofluorescein-diacetate (DCFH-DA) assay, as described by Tobi et al. (Tobi et al., 2000).
DCFH-DA is a non-fluorescent compound in lipophilic form, able to spread through the cell membrane. Once inside the cell, it is deacetylated by the intracellular esterases to reduced 2,7-dichlorofluorescein (DCFH), which is also non-fluorescent. DCFH, unable to cross again the cell membrane, eventually ends up accumulating in the cells (Curtin et al., 2002). The intracellular ROS reaction leads to the oxidation of 2.7-dichlorofluorescein (DCF) DCFH, a highly fluorescent compound. This fluorescence intensity can be detected with a fluorimeter, allowing estimating the amount of ROS produced in the cells.
[…]
Subsequently, the lysates were transferred in a 96-well black plate and the fluorescence of DCF was read spectrofluorimetrically using a FluoroskanAscent FL Microplate Fluorescence Reader (Thermo Fisher ScientificInc., Waltham, Mass., USA), with excitation and emission wavelengths of 485 and 538 nm respectively. […]

Structure (SMILES) | mRNA SERD5A2 [1] | % cells viability [2] [%] | % ROS [3] [%]
CC(C)(C)NC(=O)[C@H]1CC[C@H]2[C@@H]3CC[C@H]4NC(=O)C=C[C@]4(C)[C@H]3CC[C@]12C [finasteride] | 0.31 | – | –
Cc1c(C)c2c(c(C)c1O)CC[C@@](C)(CCC[C@H](C)CCC[C@H](C)CCCC(C)C)O2 [α-tocopherol] | – | 78.37 | 39.67
